Source: patent publication US4786633A, “Cephalosporin compounds” (Tanabe Seiyaku Co., Ltd., priority 1986, dated 1988)
≈ marks a conversion by molar mass, not a printed value.

How the values were obtained:
[1] = test system: Staphylococcus aureus Smith; assay: Antimicrobial activity in vitro (MIC, standard agar plate dilution method); type: cell-based; conditions: Mueller-Hinton agar, read-out: M.I.C. (minimum inhibitory concentration)
Method: (§1) (Antimicrobial activity in vitro)
(§2) The minimum inhibitory concentration (MIC, μg/ml) of a test compound was determined by means of a standard agar plate dilution method (based on the standard method of Japan Society of Chemotherapy). Media used in the experiment were Mueller-Hinton agar (MHA; product of Nissui).

[2] = test system: Pseudomonas aeruginosa PI-67; assay: as above; type: cell-based; conditions: PI67, Mueller-Hinton agar, read-out: M.I.C. (minimum inhibitory concentration)
Method: as §1, §2

[3] = test system: Staphylococcus aureus Smith; assay: Protective effects on bacterial infections in mice (Staphylococcus aureus Smith); type: in vivo; conditions: im, 168 h, intraperitoneal challenge, compound intramuscularly one hour after infection, survival 7 days after infection, probit analysis, read-out: ED50 (median effective dose)
Method: (§3) (Protective effects on bacterial infections in mice) Ten mice weighing 20±1 g were used for each dose level. Mice were challenged via the intraperitoneal route with sufficient bacteria to kill all non-treated mice within 24 hours. All bacteria were suspended in a physiological saline solution containing 6% mucin. A test compound was administered intramuscularly one hour after the infection. Survival ratios were determined 7 days after the infection. The median effective doses (ED50, mg/kg) of the test compound were estimated by the probit analysis.

[4] = test system: Pseudomonas aeruginosa PI-67; assay: Protective effects on bacterial infections in mice (Pseudomonas aeruginosa PI-67); type: in vivo; conditions: PI67, im, 168 h, intraperitoneal challenge, compound intramuscularly one hour after infection, survival 7 days after infection, probit analysis, read-out: ED50 (median effective dose)
Method: as §3

MIC [1] | MIC [2] | Compound | ED50 [3] | ED50 [4]
0.78 µg/mL (≈ 1.32 µM) | 1.56 µg/mL (≈ 2.65 µM) | C[n+]1ccccc1SCC1=C(C(=O)[O-])N2C(=O)C(NC(=O)/C(=N\O[C@H]3CCNC3=O)c3csc(N)n3)C2SC1 (stereo partly drawn) [Test Compound 2, 7β-{(Z)-2-(2-aminothiazol-4-yl)-2-[((3S)-2-oxopyrrolidin-3-yl)oxyimino]acetamido}-3-(1-methyl-2-pyridinio)thiomethyl-3-cephem-4-carboxylate] | 0.25 mg/kg | 15.8 mg/kg
1.56 µg/mL (≈ 2.53 µM) | 3.13 µg/mL (≈ 5.08 µM) | C=CC[n+]1ccccc1SCC1=C(C(=O)[O-])N2C(=O)C(NC(=O)/C(=N\O[C@H]3CCNC3=O)c3csc(N)n3)C2SC1 (stereo partly drawn) [Test Compound 3, 7β-{(Z)-2-(2-aminothiazol-4-yl)-2-[((3S)-2-oxopyrrolidin-3-yl)oxyimino]acetamido}-3-(1-allyl-2-pyridinio)thiomethyl-3-cephem-4-carboxylate] | 0.4 mg/kg | 10.8 mg/kg
0.78 µg/mL (≈ 1.32 µM) | 0.78 µg/mL (≈ 1.32 µM) | C[n+]1ccc(SCC2=C(C(=O)[O-])N3C(=O)C(NC(=O)/C(=N\O[C@H]4CCNC4=O)c4csc(N)n4)C3SC2)cc1 (stereo partly drawn) [Test Compound 1, 7β-{(Z)-2-(2-aminothiazol-4-yl)-2-[((3S)-2-oxopyrrolidin-3-yl)oxyimino]acetamido}-3-(1-methyl-4-pyridinio)thiomethyl-3-cephem-4-carboxylate] | 0.14 mg/kg | 12.3 mg/kg
